pIC50: −log10 of the molar value. The source made the active and inactive calls. No cut-off for these calls is given here. Where a SMILES comes first, the peptide text is derived from it. Bridges are numbered along the chain shown (N, C = ends).
Columns and labels:
Rattus norvegicus [1] = assay: Antiarthritic activity in Lewis rat model of complete Freund's adjuvant-induced arthritis assessed as appearance of osteocytes at 1 nmol/g administered intra-articularly into knee joint after 1 week by H and E staining based histopathological analysis; type: functional, organism-based
TLR2/TLR6 (Homo sapiens) = TLR2/TLR6 (Homo sapiens) (UniProt O60603+Q9Y2C9); assay: Antagonist activity at TLR2/6 in human THP1 cells assessed as reduction in FSL-1-induced IL6 secretion at 50 uM after 24 hrs by ELISA; type: cell-based
Toll-like receptor 4 [2] = biological target: T1, Toll-like receptor 4 (Homo sapiens, UniProt O00206); assay: Binding affinity to recombinant human TLR4 assessed as dissociation rate constant up to 200 uM by surface plasmon resonance analysis
T1 sequence (O00206 whole entry): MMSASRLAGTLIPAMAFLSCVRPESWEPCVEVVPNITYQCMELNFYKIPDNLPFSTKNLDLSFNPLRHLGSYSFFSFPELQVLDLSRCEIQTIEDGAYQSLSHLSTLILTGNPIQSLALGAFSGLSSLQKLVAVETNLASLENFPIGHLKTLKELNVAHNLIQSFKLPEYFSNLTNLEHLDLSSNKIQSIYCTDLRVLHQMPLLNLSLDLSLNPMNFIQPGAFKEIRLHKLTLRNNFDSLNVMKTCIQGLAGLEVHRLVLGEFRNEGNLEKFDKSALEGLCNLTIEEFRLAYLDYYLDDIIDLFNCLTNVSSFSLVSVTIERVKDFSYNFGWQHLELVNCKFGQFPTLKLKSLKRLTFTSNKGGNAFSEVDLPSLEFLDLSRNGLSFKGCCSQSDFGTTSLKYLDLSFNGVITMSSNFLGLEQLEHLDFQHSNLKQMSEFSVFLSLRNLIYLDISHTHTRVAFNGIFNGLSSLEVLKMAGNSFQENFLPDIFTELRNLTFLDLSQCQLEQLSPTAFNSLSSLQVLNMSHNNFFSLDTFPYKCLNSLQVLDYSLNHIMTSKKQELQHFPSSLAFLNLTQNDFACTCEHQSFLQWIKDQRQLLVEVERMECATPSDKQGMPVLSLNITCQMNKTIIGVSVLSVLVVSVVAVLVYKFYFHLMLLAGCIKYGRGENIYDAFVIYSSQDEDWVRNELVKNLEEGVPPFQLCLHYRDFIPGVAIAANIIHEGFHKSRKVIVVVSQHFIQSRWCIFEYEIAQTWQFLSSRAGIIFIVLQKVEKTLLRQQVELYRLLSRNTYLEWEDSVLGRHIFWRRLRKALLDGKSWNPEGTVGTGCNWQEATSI

Rattus norvegicus [3] = assay: Antiarthritic activity in Lewis rat model of complete Freund's adjuvant-induced arthritis assessed as reduction in ankle swelling and edema at 1 nmol/g administered intra-articularly into knee joint after 2 weeks by visual analysis; type: functional, organism-based
RAW264.7 [4] = assay: Cytotoxicity against mouse RAW264.7 cells assessed as reduction in cell viability at 5 to 50 uM after 24 hrs by MTT assay; type: cell-based; conditions: raw264.7, 24 h
[5] = biological target: Toll-like receptor 1/2 (Homo sapiens) (UniProt O60603+Q15399); assay: Antagonist activity at TLR2/1 in human THP1 cells assessed as reduction in PAM3CSK4-induced IL6 secretion at 50 uM after 24 hrs by ELISA; type: cell-based
Toll-like receptor 4 [6] = biological target: T1, Toll-like receptor 4; assay: Binding affinity to recombinant human TLR4 using phage displayed compound by Phage-ELISA
Toll-like receptor 4 [7] = biological target: T1, Toll-like receptor 4; assay: Antagonist activity at TLR4 in human THP1 cells assessed as reduction in LPS-induced JNK phosphorylation at 50 uM after 15 to 30 mins by Western blot analysis; type: cell-based
[8] = biological target: T2, Toll-like receptor 4 (Mus musculus) (UniProt Q9QUK6); assay: Antagonist activity at TLR4 in mouse RAW264.7 cells assessed as reduction in LPS-induced IL-6 secretion after 24 hrs by ELISA; type: cell-based
T2 sequence (whole entry): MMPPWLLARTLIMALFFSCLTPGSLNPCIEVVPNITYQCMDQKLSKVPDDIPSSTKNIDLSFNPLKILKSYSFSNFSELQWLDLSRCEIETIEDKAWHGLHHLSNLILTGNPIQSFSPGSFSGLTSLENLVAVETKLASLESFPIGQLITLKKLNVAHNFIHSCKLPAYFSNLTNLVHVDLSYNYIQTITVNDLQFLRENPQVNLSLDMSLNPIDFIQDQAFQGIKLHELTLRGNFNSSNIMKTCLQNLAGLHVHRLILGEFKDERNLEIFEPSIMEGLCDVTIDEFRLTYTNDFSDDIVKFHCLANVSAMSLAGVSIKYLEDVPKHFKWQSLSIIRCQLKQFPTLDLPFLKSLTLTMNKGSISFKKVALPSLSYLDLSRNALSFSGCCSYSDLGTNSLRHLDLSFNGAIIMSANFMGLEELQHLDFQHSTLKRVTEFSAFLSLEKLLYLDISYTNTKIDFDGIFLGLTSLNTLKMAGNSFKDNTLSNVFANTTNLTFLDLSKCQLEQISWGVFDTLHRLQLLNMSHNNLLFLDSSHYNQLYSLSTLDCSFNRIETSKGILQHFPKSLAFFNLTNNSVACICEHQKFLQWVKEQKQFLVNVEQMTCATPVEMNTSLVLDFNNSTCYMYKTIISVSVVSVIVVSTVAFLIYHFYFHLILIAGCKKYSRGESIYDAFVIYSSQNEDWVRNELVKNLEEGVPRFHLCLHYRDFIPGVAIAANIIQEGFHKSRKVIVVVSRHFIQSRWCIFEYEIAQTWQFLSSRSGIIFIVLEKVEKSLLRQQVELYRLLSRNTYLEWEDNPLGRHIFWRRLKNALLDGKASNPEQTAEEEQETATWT

Toll-like receptor 4 [9] = biological target: T1, Toll-like receptor 4; assay: Antagonist activity at TLR4 (unknown origin)
[10] = biological target: T2, Toll-like receptor 4 (Mus musculus); assay: Antagonist activity at TLR4 in mouse RAW264.7 cells assessed as reduction in LPS-induced TNFalpha secretion after 24 hrs by ELISA; type: cell-based
Toll-like receptor 4 [11] = biological target: T1, Toll-like receptor 4; assay: Antagonist activity at TLR4 (unknown origin) assessed as inhibition of proinflammatory cytokines
Rattus norvegicus [12] = assay: Antiarthritic activity in Lewis rat model of complete Freund's adjuvant-induced arthritis assessed as reduction in ankle diameter at 1 nmol/g administered intra-articularly into knee joint for 6 weeks and measured every week during compound dosing by vernier caliper analysis; type: functional, organism-based
Toll-like receptor 4 [13] = biological target: T1, Toll-like receptor 4; assay: Binding affinity to recombinant human TLR4 by surface plasmon resonance analysis
[14] = biological target: T2, Toll-like receptor 4 (Mus musculus); assay: Antagonist activity at TLR4 in mouse RAW264.7 cells assessed as reduction in LPS-induced ERK phosphorylation at 80 uM after 15 to 30 mins by Western blot analysis; type: cell-based
RAW264.7 [15] = assay: Antagonist activity at TLR7/8 in mouse RAW264.7 cells assessed as reduction in R848-induced TNFalpha secretion at 20 to 80 uM after 24 hrs by ELISA; type: cell-based
[16] = biological target: T2, Toll-like receptor 4 (Mus musculus); assay: Antagonist activity at TLR4 in mouse RAW264.7 cells assessed as reduction in LPS-induced ATF3 activation at 80 uM after 120 to 240 mins by Western blot analysis; type: cell-based
Toll-like receptor 4 [17] = biological target: T1, Toll-like receptor 4; assay: Antagonist activity at TLR4 in human PBMC cells assessed as reduction in LPS-induced p38 phosphorylation at 80 uM after 15 to 30 mins by Western blot analysis; type: cell-based
[18] = biological target: Toll-like receptor 2 (Homo sapiens) (UniProt O60603); assay: Non-specific binding affinity to human TLR2 up to 200 uM by surface plasmon resonance analysis
Toll-like receptor 2 (Homo sapiens), sequence (O60603 whole entry): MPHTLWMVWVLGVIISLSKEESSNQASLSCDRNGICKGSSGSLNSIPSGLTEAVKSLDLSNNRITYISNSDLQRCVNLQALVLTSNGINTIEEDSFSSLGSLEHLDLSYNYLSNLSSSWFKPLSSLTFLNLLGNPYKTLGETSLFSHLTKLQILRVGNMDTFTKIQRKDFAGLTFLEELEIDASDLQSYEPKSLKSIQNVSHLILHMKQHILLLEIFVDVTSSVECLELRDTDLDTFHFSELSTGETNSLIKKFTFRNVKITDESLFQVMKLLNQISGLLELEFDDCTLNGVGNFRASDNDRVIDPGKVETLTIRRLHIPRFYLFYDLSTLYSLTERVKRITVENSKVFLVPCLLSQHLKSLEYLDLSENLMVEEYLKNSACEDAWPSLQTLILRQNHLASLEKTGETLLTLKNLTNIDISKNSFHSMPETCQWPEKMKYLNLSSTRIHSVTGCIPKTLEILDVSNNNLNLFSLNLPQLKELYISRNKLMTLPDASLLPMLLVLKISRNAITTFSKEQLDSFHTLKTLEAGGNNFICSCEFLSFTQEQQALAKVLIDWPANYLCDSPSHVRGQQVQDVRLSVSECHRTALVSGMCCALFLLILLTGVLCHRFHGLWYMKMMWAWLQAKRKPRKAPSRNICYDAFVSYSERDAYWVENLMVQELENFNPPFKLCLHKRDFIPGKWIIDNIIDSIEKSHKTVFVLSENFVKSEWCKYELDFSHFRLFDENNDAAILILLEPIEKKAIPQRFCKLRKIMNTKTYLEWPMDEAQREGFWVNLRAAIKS

| Activity (TLR2/TLR6 (Homo sapiens)) | koff (Toll-like receptor 4 [2]) [s⁻¹] | Activity [5] | Activity (Toll-like receptor 4 [6]) | Activity (Toll-like receptor 4 [7]) | Activity [8] | pIC50 (Toll-like receptor 4 [9]) | Activity [10] | pIC50 (Toll-like receptor 4 [11]) | Activity (Toll-like receptor 4 [13]) | Activity [14] | Activity [16] | Activity (Toll-like receptor 4 [17]) | Activity [18] | Compound | Activity (Rattus norvegicus [1]) | Activity (Rattus norvegicus [3]) | Activity (RAW264.7 [4]) | Activity (Rattus norvegicus [12]) | Activity (RAW264.7 [15]) |
| --- | --- | --- | --- | --- | --- | --- | --- | --- | --- | --- | --- | --- | --- | --- | --- | --- | --- | --- | --- |
| Active | 0.0014 | Active | Active | Active | Dose-dependent effect | 4.60 | Dose-dependent effect | 5.30 | Dose-dependent effect |  |  |  |  | CC[C@H](C)[C@@H]1NC(=O)[C@H](Cc2c[nH]c3ccccc23)NC(=O)[C@H](Cc2c[nH]c3ccccc23)NC(=O)[C@@H](NC(=O)[C@H](CO)NC(=O)[C@H](Cc2ccccc2)NC(=O)[C@@H](NC(=O)CNC(=O)[C@@H](N)CC(C)C)C(C)C)CC(=O)NCCCC[C@@H](C(=O)N[C@@H](CC(C)C)C(=O)N[C@H](C(=O)O)C(C)C)NC1=O (H-LGVFSDWWIKLV-OH; lactam 6-10) | Active | Active | Non-Toxic | Active |  |
|  | 0.0113 |  | Active |  | Dose-dependent effect | 4.40 | Dose-dependent effect | 4.70 | Dose-dependent effect | Active | Active | Active | Active | H-LGVFSSWWIKLV-OH |  |  |  |  | inactive |
